Experimental data published in US11266675B2, “Methods of treatment of viral infection and uses of anti-HSC70 inhibitors” (priority 2018, dated 2022).

Legend:
EV-A71 [1] = assay: Cytopathic effect (CPE) assay; assay type: cell-based, Enterovirus A71 (SHZH98 strain)
Protocol: (§1) Human rhabdomyosarcoma (RD) cells were purchased from ATCC (CCL-136). The Dulbecco's modified Eagle's medium (DMEM) with 10% fetal bovine serum (FBS) were used for cell culture, supplemented with 100 U/ml penicillin and 100 μg/ml streptomycin Propagation of EV-A71 (SHZH98 strain, accession number AF302996) was the same as previous report. The viral titer was measured by TCID50 assays.
CPE assay was used to test the antiviral effect of Ver-155008. Ver-155008 was from Selleckchem (Cat. No. S7751). RD cells were seed in 96-well plate at 37° C. overnight, was then treated with indicated concentration of Ver-155008. […] CPE was monitored and recorded from time to time under a phase-contrast microscope. The concentration required to reduce the EV-A71-induced CPE by 50% (IC50) was determined by using the nonlinear regression analysis of SPSS 17.0. Data were shown as mean values with standard deviations from three independent assays. Selectivity index (SI) is calculated by the ratio of CC50 to IC50.

RD cells = assay: Cell viability assay (MTT); assay type: cell-based, Human; settings: serial dilution of Ver-155008 for 24 hours
Protocol: RD cells were seeded in 96-well plates (5,000 cells/well) and treated with serial dilution of Ver-155008 for 24 hours for cell viability assay. Ten μL of MTT was added to cultured cells in 100 μl culture medium and incubated at 37° C. for 4 h. Subsequently 100 μl of Dimethyl Sulfoxide were added. The optical density was measured at a wavelength of 570 nm. The cell viability assay was carried out in triplicates by three independent experiments as previously described.

EV-A71 [2] = assay: Extracellular viral RNA / virus yield in supernatant by qRT-PCR; assay type: cell-based, Enterovirus A71 (SHZH98 strain); settings: RD cells; for Virus yield in the supernatants vs scrambled control: siRNA 48 hours, EV-A71 MOI of 10, nine hours p.i.
Protocol: (§2) Total RNA was extracted from cell lysis using TRIzol reagent (Ambion, Life Technologies). Quantitative Real-time PCR (qRT-PCR) was performed using SYBR Green Mix (Life Technologies) on applied Biosystems StepOne real-time PCR system. The comparative ΔΔCt method was used to calculate the relative expression of microRNA or mRNA normalized to β-actin mRNA.
(§3) The mRNA level of Hsc70 was detected by qRT-PCR and the protein level was detected by western blotting. […] The extracellular virus levels were detected by qRT-PCR. […] The viral titer in the supernatant was determined by TCID50 assay.
To address the drug target potential of Hsc70 against EV-A71, experiments were conducted to examine if Ver-155008, a chemical inhibitor of Hsc70, could protect cells from EV-A71 infection. In this regard, RD cells were pre-treated for 2 hours with Ver-155008, then infected the cells with EV-A71 for another 9 hours at an MOI of 10.
In FIG. 5A, cell images under light microscope. In FIG. 5B, proteins levels of VP0/2 by western blot are shown. In FIG. 5C, EV-A71 IRES activity detected by luciferase activities are shown. (n=3; ***, p<0.001). In FIG. 5D, there is shown the extracellular viral RNA levels were examined by qRT-PCR.

EV-A71 viral protein VP1 = assay: Western blot of viral protein in infected RD cells; assay type: cell-based, Enterovirus A71 (SHZH98 strain)
Protocol: (§4) Total protein was extracted from cell lysis in RIPA buffer with protease inhibitor and phosphatase Inhibitor (Roche). A total of 10-30 μg protein was loaded for SDS-PAGE and transferred onto PVDF membranes. Membranes were blocked with 5% non-fat milk in Tris-buffered saline buffer with 0.1% Tween-20 (TBST) for 1 hour at room temperature and incubated with primary antibodies overnight at 4° C. After washing with TBST three times, the membranes were incubated with the corresponding horseradish peroxidase (HRP)-conjugated secondary antibodies for 1 hour at room temperature. The Hsc70 protein level was detected using an Hsc70-specific antibody (sc-13132, Santa Cruz Biotechnology, USA). The band density was quantified using Quantity One software (Bio-Rad). GADPH served as loading control. The western blotting was carried out in three times for confirmation of results.
The mRNA level of Hsc70 was detected by qRT-PCR and the protein level was detected by western blotting. […] The extracellular virus levels were detected by qRT-PCR. […] The viral titer in the supernatant was determined by TCID50 assay. […]
(§5) In FIG. 5A, cell images under light microscope. […] In FIG. 5C, EV-A71 IRES activity detected by luciferase activities are shown. […]

EV-A71 IRES = assay: Dual-luciferase IRES reporter assay; assay type: cell-based; settings: Ver-155008 treatment
Source text: Human Hsc70 (Accession NM_006597) was purchased from Addgene (Cat. No. 19541). The EV-A71 report plasmid pIRES was constructed as previously described. In detail, the EV-A71 reportor plasmid pIRES was constructed as follows: Renilla Luciferase gene (RLuc) was inserted into pcDNA4/HisMax B between BamHI and EcoRV sites; EV-A71 IRES was amplified from EV-A71 virus strain (SHZH98). Firefly Luciferase gene (FLuc) was amplified by using primer which has overlap sequence with the C-terminal of EV-A71 IRES. Finally, the construct IRES-FLuc were then amplified by using overlap PCR, and inserted into the downstream of the Renilla Luciferase gene between EcoRV and XbarI sites. […]
HEK 293T cells were seeded into a 24-well plate and incubated at 37° C. overnight and then transfected with Hsc70 expression plasmid (pHsc70) or siRNA. […] The activity of RLuc and FLuc were assessed by bioluminometer using a dual-luciferase reporter assay (Promega) according to the manufacturer.
FIG. 3A is concerned with 293T cells were co-transfected with si-Hsc70 and IRES reporter plasmid for forty-eight hours. […] Proteins which interact with the RNAs were detected by immunoblotting with specific antibody. […]
as §5

EV-A71 [3] = assay: Viral titer in supernatant by TCID50 assay; assay type: cell-based, Enterovirus A71 (SHZH98 strain); settings: RD cells, siRNA 48 hours, EV-A71 9 hours, culture media
Protocol: as §1, §3

EV-A71 [4] = assay: Intracellular viral RNA (positive and negative strand) by qRT-PCR; assay type: cell-based, Enterovirus A71 (SHZH98 strain); settings: RD cells
Protocol: as §2, §3

EV-A71 [5] = assay: 2Apro-regulated viral protein production in HEK 293T cells, western blot (VP0/2 antibody); assay type: cell-based, Enterovirus A71 (SHZH98 strain); settings: si-Hsc70 then 2Apro expression plasmid, EV-A71 MOI of 5 for 9 hours
Protocol: as §4
In FIG. 4A, HEK 293T cells were co-transfected with pHsc70, pIRES reporter plasmid and 2A^pro-expressing plasmid or empty vector for forty-eight hours, then the reporter activity was measured. In FIG. 4B, HEK 293T cell extract was incubated with the His-tagged 2A^pro, pulled down and then analyzed by western blotting. […] The cleavage products were assessed by immunoblotting. […] The viral protein production was detected by western blotting by using VP0/2 antibody (n=3).

N#Cc1ccc(COC[C@H]2O[C@@H](n3c(NCc4ccc(Cl)c(Cl)c4)nc4c(N)ncnc43)[C@H](O)[C@@H]2O)cc1 [Ver-155008]
IC50 (EV-A71 [1]; RD cells infected with EV-A71 at MOI of 0.01, read-out: Antiviral activity IC50 (concentration reducing EV-A71-induced CPE by 50%)): 2010 nM | Cytopathic effect (CPE) (EV-A71 [1]; RD cells, 8 μM, 2 h pre-treatment, EV-A71 MOI of 10 for 9 hours): nearly no obvious cytopathic effect | Selective Index SI (CC50/IC50) (EV-A71 [1]; RD cells, EV-A71): 23.71 | CC50 (RD cells; read-out: Cytotoxity CC50): 47.7 µM | CC90 (RD cells; read-out: Cytotoxity CC90): 91.9 ± 0.94 µM | Decrease of secreted virions (extracellular viral RNA, qRT-PCR) (EV-A71 [2]; 8 μM, EV-A71 MOI of 10, 9 hours): 55% | Viral VP1 levels (western blot) (EV-A71 viral protein VP1; RD cells pre-treated 2 hours with Ver-155008, EV-A71 MOI of 10, 9 hours): obviously repressed by Ver-155008 in a dose dependent manner | EV-A71 IRES activity (luciferase) (EV-A71 IRES): declined in a dose-dependent manner

5′-CCUAAAUUCGUAGCAAAUU-3′ (SEQ ID NO: 2) (other siRNA strand not cited, further chemistry not given here) [si-Hsc70-2, small interfering RNA targeting human Hsc70 (NM_006597), synthesized from Genepharma]
Virus yield in the supernatants vs scrambled control (EV-A71 [2]): obviously decreased

5′-UAAUUCUAAGUACAUUGAGACCAGC-3′ (SEQ ID NO: 1) (other siRNA strand not cited, further chemistry not given here) [si-Hsc70-1, small interfering RNA targeting human Hsc70 (NM_006597), synthesized from Genepharma]
Virus yield in the supernatants vs scrambled control (EV-A71 [2]): obviously decreased | EV-A71 viral protein VP1 (western blot) vs control cells (EV-A71 viral protein VP1; RD cells with Hsc70 knockdown, EV-A71 MOI of 10): significantly decreased | Decrease of virus titer vs scramble siRNA control (TCID50) (EV-A71 [3]): more than 10 times | Decrease of negative strand viral RNA level (EV-A71 [4]; EV-A71 MOI of 10, 3 hours p.i.): about 86% | Decrease of positive strand viral RNA level (EV-A71 [4]; EV-A71 MOI of 10, 3 hours p.i.): about 86% | Decrease of negative strand viral RNA level (EV-A71 [4]; EV-A71 MOI of 10, 6 hours p.i.): about 70% | Decrease of positive strand viral RNA level (EV-A71 [4]; EV-A71 MOI of 10, 6 hours p.i.): about 70% | Decrease of negative strand viral RNA level (EV-A71 [4]; EV-A71 MOI of 10, 9 hours p.i.): about 70% | Decrease of positive strand viral RNA level (EV-A71 [4]; EV-A71 MOI of 10, 9 hours p.i.): about 70% | Inhibitory effect on viral RNA levels (EV-A71 [4]; EV-A71 MOI of 10, 12 hours p.i.): still significant | 2Apro-elicited production of viral protein after knockdown of Hsc70 (EV-A71 [5]): failed to elicit the production of viral protein
